# Measured values reported in PMC3277886, “High-affinity fluorescent ligands for the 5-HT3 receptor” (Bioorganic & Medicinal Chemistry Letters, 2012).
# Where two headings read alike, the source gives them in different places.
# Tests used:
# human 5-HT3AR [1] = molecular target: T1, human 5-HT3AR (Homo sapiens, UniProt P46098); conditions: read-out: Ki (nM) mean ± SEM; cited from earlier work
# T1 construct: expressed in transfected cells
# T1 sequence (P46098 24-478): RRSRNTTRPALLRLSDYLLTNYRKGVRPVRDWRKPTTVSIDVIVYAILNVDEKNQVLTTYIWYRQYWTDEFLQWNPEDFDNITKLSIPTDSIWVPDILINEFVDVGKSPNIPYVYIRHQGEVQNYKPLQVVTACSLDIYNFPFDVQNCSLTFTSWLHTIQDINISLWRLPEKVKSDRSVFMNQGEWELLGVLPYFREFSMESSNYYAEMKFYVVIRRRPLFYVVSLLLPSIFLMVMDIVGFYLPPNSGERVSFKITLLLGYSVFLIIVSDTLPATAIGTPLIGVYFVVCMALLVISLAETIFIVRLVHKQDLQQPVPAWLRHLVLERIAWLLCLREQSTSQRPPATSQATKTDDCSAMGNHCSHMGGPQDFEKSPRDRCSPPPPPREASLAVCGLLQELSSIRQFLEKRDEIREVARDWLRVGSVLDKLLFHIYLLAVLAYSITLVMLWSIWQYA
# human 5-HT3AR [2] = molecular target: T1, human 5-HT3AR; assay: competition binding studies with [3H]granisetron
# Experimental: The photophysical properties of fluorescent granisetron derivatives were measured in MeOH and/or phosphate buffer at pH 7 (Table 1). […]. […] The binding affinities of the fluorescent granisetron probes for the human 5-HT3AR were determined by competition binding studies with [^3H]granisetron. […]. In terms of probe design it appears that optimal binding is obtained if the fluorophore is conjugated to N1 of granisetron via a short (butyl) aliphatic spacer. […]
# (5) Radioligand binding and fluorescence microscopy
# Materials, cell culture maintenance, receptor expression and radioligand binding for […]
# human 5-HT3A receptors = molecular target: T2, human 5-HT3A receptors (Homo sapiens, UniProt P46098); assay: live cell imaging (fluorescence microscopy) of COS-7 cells transiently transfected with human 5-HT3A receptors; format: cell-based; conditions: 100 nM probe; for selectivity of staining: 5-HT3A-transfected versus mock transfected cells / detectable staining of cells: 1 h; for selectivity of staining: 5-HT3A-transfected versus mock transfected cells / inhibition of staining by co-incubation with ondansetron: live COS-7 cells; for selectivity of staining: 5-HT3A-transfected versus mock transfected cells: transfected vs mock transfected; for detectable staining of cells: HBS buffer, room temperature, live COS-7 cells transfected with human 5-HT3A; for inhibition of staining by co-incubation with ondansetron: co-incubation with ondansetron (OND) 10 μM
# T2 construct: myc; expressed in transfected cells; host or cells: COS-7
# T2 sequence (P46098 24-478): T1 sequence (P46098 24-478)
# Experimental: The utility of granisetron probes 16–18, 26–28 and 36 to fluorescently label the receptor was studied using live cell imaging of COS-7 cells transiently transfected with human 5-HT3A receptors.
# Figure 2 Fluorescent labeling of human 5-HT3AR in live COS-7 cells. Cells were either transfected with human 5HT3A cDNA (left and middle panels), or mock transfected (right panels). 24 h later they were incubated with 100 nM of probes 16, 18 or 28 in HBS buffer for 1 h at room temperature in the dark. The cells were imaged using a fluorescence microscope set to the appropriate absorption/emission wavelengths (Table 1). Some cells were also co-incubated with 10 μM ondansetron (OND, middle panels) to block 5-HT3 receptors. Scale bar represents 50 μm. […]
# (5) Radioligand binding and fluorescence microscopy […]
# For the fluorescence microscopy experiments COS-7 cells were transiently transfected with human 5-HT3A-myc cDNA (10 µg per transfection of […]) by electroporation (400 V, ∞ Ω, 125 µF), and grown on coverslips for 24 hours. Cells were washed with HBS then incubated with 100 nM of each probe (diluted in HBS) for 1 hour at room temperature in the dark. In some experiments 10 µM unlabelled ondansetron (OND) was co-incubated with the probes. Excess probe was removed by washing four times in HBS, and coverslips were placed in an imaging chamber with 1 ml HBS. Cells were then imaged using a fluorescence microscope set to the appropriate emission/excitation wavelengths. […]
# [3] = human 5-HT3AR, competition with [3H]granisetron, read-out: Ki (nM) mean ± SEM
SMILES,Ki (human 5-HT3AR [2]) [nM],Ki (human 5-HT3AR [2]; [3]) [nM],also measured
COc1cccc2c1c(C(=O)NC1CC3CCCC(C1)N3C)nn2C (stereo not drawn) [Probe 2],–,–,Ki (human 5-HT3AR [1]): 26 ± 7 nM
COc1cccc2c(C(=O)NC3CC4CCCC(C3)N4C)nn(C)c12 (stereo not drawn) [Probe 5],–,–,Ki (human 5-HT3AR [1]): 71 ± 8 nM
Cc1cc(C)n2c1C=C1C=CC(CCC(=O)NCCCn3nc(C(=O)NC4CC5CCCC(C4)N5C)c4ccccc43)=[N+]1[B-]2(F)F (stereo not drawn) [Probe 6],–,–,Ki (human 5-HT3AR [1]): 2.8 ± 0.7 nM
COc1ccc(C2=[N+]3C(=Cc4c(C)c(CCC(=O)NCCCCCC(=O)NCCCn5nc(C(=O)NC6CC7CCCC(C6)N7C)c6ccccc65)c(C)n4[B-]3(F)F)C=C2)cc1 (stereo not drawn) [Probe 14],0.9 ± 0.3,–,–
CCN(CC)c1ccc2cc(C(=O)NCCCn3nc(C(=O)NC4CC5CCCC(C4)N5C)c4ccccc43)c(=O)oc2c1 (stereo not drawn) [Probe 15],199 ± 39,–,–
CN1C2CCCC1CC(NC(=O)c1nn(CCCNC(=S)Nc3ccc(-c4c5ccc(=O)cc-5oc5cc(O)ccc45)c(C(=O)O)c3)c3ccccc13)C2 (stereo not drawn) [Probe 16],–,1.6 ± 0.3,selectivity of staining: 5-HT3A-transfected versus mock transfected cells (human 5-HT3A receptors): selective staining for 5-HT3R; detectable staining of cells (human 5-HT3A receptors): detectable staining; inhibition of staining by co-incubation with ondansetron (human 5-HT3A receptors): inhibited by co-incubation with the 5-HT3R antagonist ondansetron
CCN(CC)c1ccc2cc(C(=O)NCCCCn3nc(C(=O)NC4CC5CCCC(C4)N5C)c4ccccc43)c(=O)oc2c1 (stereo not drawn) [Probe 17],–,7.3 ± 2.5,–
CN1C2CCCC1CC(NC(=O)c1nn(CCCCNC(=S)Nc3ccc(-c4c5ccc(=O)cc-5oc5cc(O)ccc45)c(C(=O)O)c3)c3ccccc13)C2 (stereo not drawn) [Probe 18],1.1 ± 0.2,–,selectivity of staining: 5-HT3A-transfected versus mock transfected cells (human 5-HT3A receptors): selective staining for 5-HT3R; detectable staining of cells (human 5-HT3A receptors): detectable staining; inhibition of staining by co-incubation with ondansetron (human 5-HT3A receptors): inhibited by co-incubation with the 5-HT3R antagonist ondansetron
CCN(CC)c1ccc2cc(C(=O)NCCOCCOCCn3nc(C(=O)NC4CC5CCCC(C4)N5C)c4ccccc43)c(=O)oc2c1 (stereo not drawn) [Probe 20],–,142 ± 5,–
CN1C2CCCC1CC(NC(=O)c1nn(CCOCCOCCNC(=S)Nc3ccc(-c4c5ccc(=O)cc-5oc5cc(O)ccc45)c(C(=O)O)c3)c3ccccc13)C2 (stereo not drawn) [Probe 21],–,6300,–
CCN(CC)c1ccc2c(-c3ccc(NC(=S)NCCOCCOCCn4nc(C(=O)NC5CC6CCCC(C5)N6C)c5ccccc54)cc3C(=O)[O-])c3ccc(=[N+](CC)CC)cc-3oc2c1 (stereo not drawn) [Probe 22],–,384 ± 68,–
CN1C2CCCC1CC(NC(=O)c1nn(CCCNc3ccc([N+](=O)[O-])c4nonc34)c3ccccc13)C2 (stereo not drawn) [Probe 26],–,8.7 ± 5.8,–
CN(C)c1cccc2c(S(=O)(=O)NCCCn3nc(C(=O)N[C@H]4C[C@H]5CCC[C@@H](C4)N5C)c4ccccc43)cccc12 [Probe 27],–,1.2 ± 0.6,–
CC1=CC(C)=[N+]2C1=C(CCCOC(=O)CCCn1nc(C(=O)NC3CC4CCCC(C3)N4C)c3ccccc31)c1c(C)cc(C)n1[B-]2(F)F (stereo not drawn) [Probe 28],–,1.6 ± 0.8,selectivity of staining: 5-HT3A-transfected versus mock transfected cells (human 5-HT3A receptors): intense fluorescence in both 5-HT3A- and mock-transfected cells; detectable staining of cells (human 5-HT3A receptors): detectable staining; inhibition of staining by co-incubation with ondansetron (human 5-HT3A receptors): not blocked by ondansetron
CCN(CC)c1ccc2cc(C(=O)NCCOc3cccc4c(C(=O)NC5CC6CCCC(C5)N6C)nn(C)c34)c(=O)oc2c1 (stereo not drawn) [Probe 36],1.9 ± 0.9,–,–
CCN(CC)c1ccc2cc(C(=O)NCCCOc3cccc4c(C(=O)N[C@H]5C[C@H]6CCC[C@@H](C5)N6C)nn(C)c34)c(=O)oc2c1 [Probe 37],157 ± 9,–,–
CCN(CC)c1ccc2cc(C(=O)NCCOCCOCCOc3cccc4c(C(=O)N[C@@H]5C[C@H]6CCC[C@@H](C5)N6C)nn(C)c34)c(=O)oc2c1 [Probe 38],–,1300,–
CN1[C@@H]2CCC[C@H]1C[C@@H](NC(=O)c1nn(C)c3c(OCCOCCOCCNC(=S)Nc4ccc(-c5c6ccc(=O)cc-6oc6cc(O)ccc56)c(C(=O)O)c4)cccc13)C2 [Probe 39],208 ± 55,–,–
